Measured values taken from patent publication US6914045B2, “Glycopeptide antibiotics” (Wyeth Holdings Corporation, priority 2001, dated 2005).
≈ marks a conversion by molar mass, not a printed value.

Columns and labels:
Assay in all cases: in vitro antibacterial evaluation, MIC by broth dilution
Assay type in all cases: cell-based
Enterococcus sp. = details: broth dilution, 18 hours at 35° C.; for MIC Enterococcus faecalis (ATCC 29212): strain ATCC 29212; for MIC Enterococcus faecalis (GC 2242): strain GC 2242; for MIC Enterococcus faecium (GC 2243): strain GC 2243; for MIC Enterococcus faecalis (GC 2691): strain GC 2691; for MIC Enterococcus faecalis (GC 3059): strain GC 3059; for MIC Enterococcus faecalis (GC 4552): strain GC 4552; for MIC Enterococcus faecalis (GC 4553): strain GC 4553; for MIC Enterococcus faecalis (GC 4554): strain GC 4554; for MIC Enterococcus faecium (GC 4556): strain GC 4556; for MIC Enterococcus faecium (GC 4557): strain GC 4557; for MIC Enterococcus avium (GC 4558): strain GC 4558; for MIC Enterococcus faecalis (GC 6189): strain GC 6189
Procedure, shortened: (§1)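 Broth dilution per NCCLS M7-A2 in Mueller-Hinton II medium, inoculum 5×10^5 CFU/mL, antibiotic range 64-0.06 μg/mL. MIC taken as lowest concentration inhibiting growth; Gram-positive panel includes recent clinical isolates resistant to methicillin, penicillin and/or vancomycin.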

Escherichia coli = tested on: Escherichia coli
Procedure, shortened: as §1

Streptococcus sp. = details: broth dilution, 18 hours at 35° C.; for MIC Streptococcus pneumoniae (ATCC 6301): strain ATCC 6301; for MIC Streptococcus pneumoniae (GC 1894): strain GC 1894; for MIC Streptococcus pyogenes (GC 4563): strain GC 4563; for MIC Streptococcus agalactiae (GC 4564): strain GC 4564; for MIC Streptococcus pneumoniae (GC 4565): strain GC 4565
Procedure, shortened: as §1

Staphylococcus sp. = details: broth dilution, 18 hours at 35° C.; for MIC Staphylococcus aureus (GC 1131): strain GC 1131
Procedure, shortened: as §1

CC(c1ccccc1)C1NC(=O)CNC(=O)C(CO)NC(=O)C(C(O)C2CNC(=N)N2C2OC(CO)C(O)C(O)C2O)NC(=O)C(C(O)C2CNC(=N)N2)NC(=O)C(Cc2ccc(OC3OC(CO)C(OC4OC5COC(c6ccc(-c7ccc(Cl)cc7)cc6)OC5C(O)C4O)C(O)C3O)cc2)NC1=O (stereo not drawn) [Example 178, Cyclo[glycyl-β-methylphenylalanyl-O-[4-O-[4,6-O-[4-(4-chlorophenyl)benzylidene]hexopyranosyl]hexopyranosyl]tyrosyl-3-(2-iminoimidazolidin-4-yl)seryl-3-(3-hexopyranosyl-2-iminoimidazolidin-4-yl)serylseryl]]
MIC Enterococcus faecalis (ATCC 29212) (Enterococcus sp.; inoculum 5×10^5 CFU/mL): 4 µg/mL (≈ 2.68 µM) | MIC Enterococcus faecalis (GC 2242) (Enterococcus sp.; inoculum 5×10^5 CFU/mL): 2 µg/mL (≈ 1.34 µM) | MIC Enterococcus faecium (GC 2243) (Enterococcus sp.; inoculum 5×10^5 CFU/mL): 4 µg/mL (≈ 2.68 µM) | MIC Enterococcus faecalis (GC 2691) (Enterococcus sp.; inoculum 5×10^5 CFU/mL): 1 µg/mL (≈ 0.669 µM) | MIC Enterococcus faecalis (GC 3059) (Enterococcus sp.; inoculum 5×10^5 CFU/mL): 16 µg/mL (≈ 10.7 µM) | MIC Enterococcus faecalis (GC 4552) (Enterococcus sp.; inoculum 5×10^5 CFU/mL): 4 µg/mL (≈ 2.68 µM) | MIC Enterococcus faecalis (GC 4553) (Enterococcus sp.; inoculum 5×10^5 CFU/mL): 2 µg/mL (≈ 1.34 µM) | MIC Enterococcus faecalis (GC 4554) (Enterococcus sp.; inoculum 5×10^5 CFU/mL): 2 µg/mL (≈ 1.34 µM) | MIC Enterococcus faecium (GC 4556) (Enterococcus sp.; inoculum 5×10^5 CFU/mL): 4 µg/mL (≈ 2.68 µM) | MIC Enterococcus faecium (GC 4557) (Enterococcus sp.; inoculum 5×10^5 CFU/mL): 8 µg/mL (≈ 5.36 µM) | MIC Enterococcus avium (GC 4558) (Enterococcus sp.; inoculum 5×10^5 CFU/mL): 4 µg/mL (≈ 2.68 µM) | MIC Enterococcus faecalis (GC 6189) (Enterococcus sp.; inoculum 5×10^5 CFU/mL): 0.5 µg/mL (≈ 0.335 µM) | MIC Enterococcus faecalis (ATCC 29212) (Enterococcus sp.): 4 µg/mL (≈ 2.68 µM) | MIC Enterococcus faecalis (GC 2242) (Enterococcus sp.): 2 µg/mL (≈ 1.34 µM) | MIC Enterococcus faecium (GC 2243) (Enterococcus sp.): 4 µg/mL (≈ 2.68 µM) | MIC Enterococcus faecalis (GC 2691) (Enterococcus sp.): 1 µg/mL (≈ 0.669 µM) | MIC Enterococcus faecalis (GC 3059) (Enterococcus sp.): 16 µg/mL (≈ 10.7 µM) | MIC Enterococcus faecalis (GC 4552) (Enterococcus sp.): 4 µg/mL (≈ 2.68 µM) | MIC Enterococcus faecalis (GC 4553) (Enterococcus sp.): 2 µg/mL (≈ 1.34 µM) | MIC Enterococcus faecalis (GC 4554) (Enterococcus sp.): 2 µg/mL (≈ 1.34 µM) | MIC Enterococcus faecium (GC 4556) (Enterococcus sp.): 4 µg/mL (≈ 2.68 µM) | MIC Enterococcus faecium (GC 4557) (Enterococcus sp.): 8 µg/mL (≈ 5.36 µM) | MIC Enterococcus avium (GC 4558) (Enterococcus sp.): 4 µg/mL (≈ 2.68 µM) | MIC Enterococcus faecalis (GC 6189) (Enterococcus sp.): 0.5 µg/mL (≈ 0.335 µM) | MIC Escherichia coli (ATCC 25922) (Escherichia coli; strain ATCC 25922, 18 hours at 35° C.): >64 µg/mL | MIC Escherichia coli (GC 4559) (Escherichia coli; strain GC 4559, 18 hours at 35° C.): >64 µg/mL | MIC Escherichia coli (GC 4560) (Escherichia coli; strain GC 4560, 18 hours at 35° C.): 16 µg/mL (≈ 10.7 µM) | MIC Streptococcus pneumoniae (ATCC 6301) (Streptococcus sp.; inoculum 5×10^5 CFU/mL): <0.06 µg/mL | MIC Streptococcus pneumoniae (GC 1894) (Streptococcus sp.; inoculum 5×10^5 CFU/mL): <0.06 µg/mL | MIC Streptococcus pyogenes (GC 4563) (Streptococcus sp.; inoculum 5×10^5 CFU/mL): 0.12 µg/mL (≈ 0.0803 µM) | MIC Streptococcus agalactiae (GC 4564) (Streptococcus sp.; inoculum 5×10^5 CFU/mL): <0.06 µg/mL | MIC Streptococcus pneumoniae (GC 4565) (Streptococcus sp.; inoculum 5×10^5 CFU/mL): <0.06 µg/mL | MIC Streptococcus pneumoniae (ATCC 6301) (Streptococcus sp.): <0.06 µg/mL | MIC Streptococcus pneumoniae (GC 1894) (Streptococcus sp.): <0.06 µg/mL | MIC Streptococcus pyogenes (GC 4563) (Streptococcus sp.): 0.12 µg/mL (≈ 0.0803 µM) | MIC Streptococcus agalactiae (GC 4564) (Streptococcus sp.): <0.06 µg/mL | MIC Streptococcus pneumoniae (GC 4565) (Streptococcus sp.): <0.06 µg/mL | MIC Staphylococcus aureus (GC 1131) (Staphylococcus sp.; inoculum 5×10^5 CFU/mL): 4 µg/mL (≈ 2.68 µM) | MIC Staphylococcus aureus (ATCC 29213) (Staphylococcus sp.; strain ATCC 29213): 16 µg/mL (≈ 10.7 µM) | MIC Staphylococcus aureus (GC 1131) (Staphylococcus sp.): 4 µg/mL (≈ 2.68 µM) | MIC Staphylococcus aureus (GC 3051) (Staphylococcus sp.; strain GC 3051): 8 µg/mL (≈ 5.36 µM) | MIC Staphylococcus aureus (GC 3053) (Staphylococcus sp.; strain GC 3053): 4 µg/mL (≈ 2.68 µM) | MIC Staphylococcus aureus (GC 4541) (Staphylococcus sp.; strain GC 4541): 8 µg/mL (≈ 5.36 µM) | MIC Staphylococcus aureus (GC 4542) (Staphylococcus sp.; strain GC 4542): 8 µg/mL (≈ 5.36 µM) | MIC Staphylococcus aureus (GC 4544) (Staphylococcus sp.; strain GC 4544): 8 µg/mL (≈ 5.36 µM) | MIC Staphylococcus aureus (GC 4545) (Staphylococcus sp.; strain GC 4545): 4 µg/mL (≈ 2.68 µM) | MIC Staphylococcus aureus-SMITH (GC 4543) (Staphylococcus sp.; strain GC 4543): 4 µg/mL (≈ 2.68 µM) | MIC Staphylococcus haemolyticus (GC 4546) (Staphylococcus sp.; strain GC 4546): 8 µg/mL (≈ 5.36 µM) | MIC Coagulase Negative Staphylococcus (GC 4547) (Staphylococcus sp.; strain GC 4547): 32 µg/mL (≈ 21.4 µM) | MIC Coagulase Negative Staphylococcus (GC 4548) (Staphylococcus sp.; strain GC 4548): 0.5 µg/mL (≈ 0.335 µM) | MIC Coagulase Negative Staphylococcus (GC 4549) (Staphylococcus sp.; strain GC 4549): 2 µg/mL (≈ 1.34 µM) | MIC Coagulase Negative Staphylococcus (GC 4551) (Staphylococcus sp.; strain GC 4551): 4 µg/mL (≈ 2.68 µM) | MIC Coagulase Negative Staphylococcus (GC 6257) (Staphylococcus sp.; strain GC 6257): 2 µg/mL (≈ 1.34 µM)
